The results in this text go back to patent publication US6914122B2 (priority 2000, dated 2005).

*1 amine or outer side, *2 acyl side, *3 side chain or, on linkers, in order; H or OH if unused. Where a SMILES comes first, the peptide text is derived from it. Bridges are numbered along the chain shown (N, C = ends). [ ]: non-standard residue; d: D form. The star is where a group is joined. ξ: configuration not given here. Phe(3-(CH2)7CO) = O=C([C@H](Cc1cccc(CCCCCCCC(=O)[*:3])c1)N[*:1])[*:2]; Azelaoyl = O=C(CCCCCCCC(=O)[*:2])[*:1]; Suberoyl = O=C(CCCCCCC(=O)[*:2])[*:1]; Adipoyl = O=C(CCCCC(=O)[*:2])[*:1]; Glutaryl = O=C(CCCC(=O)[*:2])[*:1]; X1 = CCCC(N[*:1])C(=O)C(=O)[*:2]; Chg = N[C@H](C(=O)O)C1CCCCC1; Phg = N[C@H](C(=O)O)c1ccccc1; Suc = O=C(CCC(=O)[*:2])[*:1]; ξChg = NC(C(=O)O)C1CCCCC1; OtBu = CC(C)(C)O*

This test deals with Recombinant heterodimeric HCV NS3/NS4A protease (strain 1a) (Hepatitis C virus genotype 1a, UniProt P27958). The test can be described thus: biochemical. More on the design: species or system HCV (strain 1a).
Chain of Recombinant heterodimeric HCV NS3/NS4A protease (strain 1a) (P27958 1027-1657 limits assumed): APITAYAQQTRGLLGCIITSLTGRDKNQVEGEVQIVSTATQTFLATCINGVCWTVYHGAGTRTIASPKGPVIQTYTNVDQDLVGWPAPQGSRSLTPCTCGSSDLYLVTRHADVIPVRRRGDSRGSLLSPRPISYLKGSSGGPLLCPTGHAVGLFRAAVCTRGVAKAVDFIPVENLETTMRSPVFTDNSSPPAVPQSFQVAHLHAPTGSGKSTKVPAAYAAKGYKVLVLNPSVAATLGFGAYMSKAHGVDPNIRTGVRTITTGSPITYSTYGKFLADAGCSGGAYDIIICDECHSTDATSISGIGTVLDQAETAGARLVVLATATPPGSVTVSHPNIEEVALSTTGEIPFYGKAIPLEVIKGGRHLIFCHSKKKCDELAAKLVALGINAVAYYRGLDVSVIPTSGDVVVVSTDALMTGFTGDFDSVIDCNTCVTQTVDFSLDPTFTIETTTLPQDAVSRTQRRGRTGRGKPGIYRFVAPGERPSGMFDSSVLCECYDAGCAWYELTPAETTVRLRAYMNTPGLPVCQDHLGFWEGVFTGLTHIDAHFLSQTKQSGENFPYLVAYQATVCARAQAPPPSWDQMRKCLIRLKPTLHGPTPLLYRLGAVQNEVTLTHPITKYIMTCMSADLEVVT
Chain of Recombinant heterodimeric HCV NS3/NS4A protease (strain 1a) (P27958 1658-1711 partner limits assumed): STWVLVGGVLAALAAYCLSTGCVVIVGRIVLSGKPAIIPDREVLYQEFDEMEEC
Regarding `CCCC(NC(=O)[C@@H]1CCCCNC(=O)CCC(=O)N[C@H](CC(=O)O)C(=O)N[C@@H](C2CCCCC2)C(=O)N1)C(=O)C(=O)NCC(=O)N[C@H](C(N)=O)c1ccccc1` (stereo partly drawn) [Example 45] ([dD][Chg]K[X1]G[Phg]-NH2; linker N-3 via Suc), the inhibitory constant (Ki) lay in the range of 1100 to 100000 nM.
Turning to `CCCC(NC(=O)[C@@H]1CCCCNC(=O)CCCC(=O)NCC(=O)N[C@@H](C2CCCCC2)C(=O)N1)C(=O)C(=O)NCC(=O)N[C@H](C(N)=O)c1ccccc1` (stereo partly drawn) [Example 50] (G[Chg]K[X1]G[Phg]-NH2; linker N-3 via Glutaryl), the Ki was 1100 to 100000 nM.
Take `CCCC(NC(=O)[C@@H]1Cc2cccc(c2)C=CCCCCCC(=O)N[C@@H](C2CCCCC2)C(=O)N1)C(=O)C(=O)NCC(=O)N[C@H](C(=O)OC(C)(C)C)c1ccccc1` (stereo partly drawn) [Example 15]: the Ki was 1100 to 100000 nM.
`CCCC(NC(=O)[C@@H]1Cc2cccc(c2)Oc2ccc(cc2)CC(NC(C)=O)C(=O)N[C@@H](C2CCCCC2)C(=O)N1)C(=O)C(=O)NCC(=O)O` (stereo partly drawn) [Example 32]: the Ki lay in the range of 1100 to 100000 nM.
With `CCCC(NC(=O)C1Cc2cccc(c2)Oc2ccc(cc2)CCC(=O)NC(C2CCCCC2)C(=O)O1)C(=O)C(=O)NCC(=O)NC(C(=O)O)c1ccccc1` (stereo not drawn) [Example 34], the inhibition constant Ki lay in the range of 1100 to 100000 nM.
As to `CCCC(NC(=O)[C@@H]1CCCCNC(=O)CCCCC(=O)N[C@@H](C2CCCCC2)C(=O)N1)C(=O)C(=O)NCC(=O)N[C@H](C(N)=O)c1ccccc1` (stereo partly drawn) [Example 52] ([Chg]K[X1]G[Phg]-NH2; linker N-2 via Adipoyl), the Ki was 1 to 1000 nM.
Take `CCCC(NC(=O)[C@@H]1CCCCNC(=O)CCC(=O)N[C@H](CCC(=O)O)C(=O)N[C@@H](C2CCCCC2)C(=O)N1)C(=O)C(=O)NCC(=O)N[C@H](C(N)=O)c1ccccc1` (stereo partly drawn) [Example 47] ([dE][Chg]K[X1]G[Phg]-NH2; linker N-3 via Suc): the Ki was in the range of 1100 to 100000 nM.
In the case of `CCCC(NC(=O)[C@@H]1Cc2cccc(c2)C=CCCCCCC(=O)N[C@@H](C2CCCCC2)C(=O)N1)C(=O)C(=O)NCC(=O)N[C@H](C(=O)O)c1ccccc1` (stereo partly drawn) [Example 16] it was 1 to 1000 nM; in that of `CCCC(NC(=O)[C@@H]1CCCCNC(=O)Cc2ccc(cc2)CC(=O)N[C@@H](C2CCCCC2)C(=O)N1)C(=O)C(=O)NCC(=O)N[C@H](C(N)=O)c1ccccc1` (stereo partly drawn) [Example 44], 1 to 1000 nM; in that of `CCCC(NC(=O)C1Cc2cccc(c2)Oc2ccc(cc2)CCCCC(=O)NC(C2CCCCC2)C(=O)N1)C(=O)C(=O)NCC(=O)NC(C(=O)OC(C)(C)C)c1ccccc1` (stereo not drawn) [Example 7], 1100 to 100000 nM.
In the case of `CCCC(NC(=O)[C@@H]1CCCCNC(=O)Cc2cccc(c2)CC(=O)N[C@@H](C2CCCCC2)C(=O)N1)C(=O)C(=O)NCC(=O)N[C@H](C(N)=O)c1ccccc1` (stereo partly drawn) [Example 43], the Ki fell in the range of 1 to 1000 nM.
On to `CCCC(NC(=O)C1Cc2cccc(c2)Oc2ccc(cc2)CCCC(=O)NC(C2CCCCC2)C(=O)N1)C(=O)C(=O)NCC(=O)NC(C(=O)O)c1ccccc1` (stereo not drawn) [Example 6], for which the inhibition constant Ki was in the range of 1 to 1000 nM.
In the case of `CCCC(NC(=O)C1Cc2cccc(c2)Oc2ccc(cc2)CC(NC(C)=O)C(=O)NC(C2CCCCC2)C(=O)N1)C(=O)C(=O)NCC(=O)NC(C(=O)OC(C)(C)C)c1ccccc1` (stereo not drawn) [Example 29] it was 1100 to 100000 nM.
Turning to `CCCC(NC(=O)[C@@H]1Cc2cccc(c2)OCCCCCNC(=O)N[C@@H](C2CCCCC2)C(=O)N1)C(=O)C(=O)NCC(=O)N[C@H](C(=O)OC(C)(C)C)c1ccccc1` (stereo partly drawn) [Example 19], the Ki fell in the range of 1100 to 100000 nM.
In the case of `CCCC(NC(=O)[C@@H]1Cc2cccc(c2)Oc2ccc(cc2)CC(NC(C)=O)C(=O)N[C@@H](C2CCCCC2)C(=O)N1)C(=O)C(=O)NCC(=O)N[C@H](C(=O)O)c1ccccc1` (stereo partly drawn) [Example 30], the Ki is 1 to 1000 nM.
On to `CCCC(NC(=O)C1Cc2cccc(c2)Oc2ccc(cc2)CCC(=O)NC(C2CCCCC2)C(=O)N1)C(=O)C(=O)NCC(=O)O` (stereo not drawn) [Example 4], for which the Ki is 1100 to 100000 nM.
For the compound `CCCC(NC(=O)[C@@H]1Cc2cccc(c2)CCCCCCCC(=O)N[C@@H](C2CCCCC2)C(=O)N1)C(=O)C(=O)NCC(=O)N[C@H](C(=O)O)c1ccccc1` (stereo partly drawn) [Example 18] ([Chg][Phe(3-(CH2)7CO)][X1]G[Phg]-OH; lactam N-2), the Ki lay in the range of 1 to 1000 nM.
Take `CCCC(NC(=O)[C@H]1Cc2cccc(c2)Oc2ccc(cc2)CCC(=O)N[C@@H](C2CCCCC2)C(=O)O1)C(=O)C(=O)NCC(=O)N[C@H](C(=O)OC(C)(C)C)c1ccccc1` (stereo partly drawn) [Example 37]: the Ki fell in the range of 1100 to 100000 nM.
In the case of `CCCC(NC(=O)C1Cc2cn(cn2)CCCCCCCC(=O)NC(C2CCCCC2)C(=O)N1)C(=O)C(=O)NCC(=O)NC(C(=O)OC(C)(C)C)c1ccccc1` (stereo not drawn) [Example 23] it was 1100 to 100000 nM; in that of `CCCC(NC(=O)[C@@H]1CCCCNC(=O)CCCC(=O)NC(C2CCCCC2)C(=O)N1)C(=O)C(=O)NCC(=O)N[C@H](C(N)=O)c1ccccc1` (stereo partly drawn) [Example 40] ([ξChg]K[X1]G[Phg]-NH2; linker N-2 via Glutaryl), 1100 to 100000 nM.
With `CCCC(NC(=O)[C@@H]1CCCCNC(=O)CCCCCCCC(=O)N[C@@H](C2CCCCC2)C(=O)N1)C(=O)C(=O)NCC(=O)N[C@H](C(N)=O)c1ccccc1` (stereo partly drawn) [Example 42] ([Chg]K[X1]G[Phg]-NH2; linker N-2 via Azelaoyl), the Ki lay within 1100 to 100000 nM.
In the case of `CCCC(NC(=O)[C@@H]1Cc2cccc(c2)OCCCCCCC(=O)N[C@@H](C2CCCCC2)C(=O)N1)C(=O)C(=O)NCC(=O)N[C@H](C(=O)OC(C)(C)C)c1ccccc1` (stereo partly drawn) [Example 11] it was 1100 to 100000 nM; in that of `CCCC(NC(=O)[C@@H]1CCCCNC(=O)CCC(=O)N[C@@H](C2CCCCC2)C(=O)N1)C(=O)C(=O)NCC(=O)N[C@H](C(N)=O)c1ccccc1` (stereo partly drawn) [Example 51] ([Chg]K[X1]G[Phg]-NH2; linker N-2 via Suc), 1100 to 100000 nM; in that of `CCCC(NC(=O)[C@H]1Cc2cccc(c2)Oc2ccc(cc2)CCC(=O)N[C@@H](C2CCCCC2)C(=O)O1)C(=O)C(=O)NCC(=O)N[C@H](C(=O)O)c1ccccc1` (stereo partly drawn) [Example 38], 1100 to 100000 nM.
Regarding `CCCC(NC(=O)[C@@H]1Cc2cccc(c2)OCCCCCC(=O)N[C@@H](C2CCCCC2)C(=O)N1)C(=O)C(=O)NCC(=O)N[C@H](C(=O)O)c1ccccc1` (stereo partly drawn) [Example 14], the inhibitory constant (Ki) is 1100 to 100000 nM.
In the case of `CCCC(NC(=O)C1Cc2cccc(c2)Oc2ccc(cc2)CCC(=O)NC(C2CCCCC2)C(=O)N1)C(=O)C(=O)NCC(=O)NC(C(=O)O)c1ccccc1` (stereo not drawn) [Example 2] it was 1 to 1000 nM; in that of `CCCC(NC(=O)[C@@H]1Cc2cccc(c2)OCCCCCC(=O)N[C@@H](C2CCCCC2)C(=O)N1)C(=O)C(=O)NCC(=O)N[C@H](C(=O)OC(C)(C)C)c1ccccc1` (stereo partly drawn) [Example 13], 1100 to 100000 nM; in that of `CCCC(NC(=O)[C@@H]1Cc2cccc(c2)OCCCCCNC(=O)N[C@@H](C2CCCCC2)C(=O)N1)C(=O)C(=O)NCC(=O)N[C@H](C(=O)O)c1ccccc1` (stereo partly drawn) [Example 20], 1 to 1000 nM.
As to `CCCC(NC(=O)[C@@H]1CCCCNC(=O)CCCC(=O)N[C@H](CC(=O)O)C(=O)N[C@@H](C2CCCCC2)C(=O)N1)C(=O)C(=O)NCC(=O)N[C@H](C(N)=O)c1ccccc1` (stereo partly drawn) [Example 46] ([dD][Chg]K[X1]G[Phg]-NH2; linker N-3 via Glutaryl), the inhibition constant (Ki) lay within 1100 to 100000 nM.
`CCCC(NC(=O)[C@@H]1CCCCNC(=O)CCC(=O)NCC(=O)N[C@@H](C2CCCCC2)C(=O)N1)C(=O)C(=O)NCC(=O)N[C@H](C(N)=O)c1ccccc1` (stereo partly drawn) [Example 49] (G[Chg]K[X1]G[Phg]-NH2; linker N-3 via Suc): the Ki was 1100 to 100000 nM.
In the case of `CCCC(NC(=O)C1Cc2cccc(c2)Oc2ccc(cc2)CCCCC(=O)NC(C2CCCCC2)C(=O)N1)C(=O)C(=O)NCC(=O)NC(C(=O)O)c1ccccc1` (stereo not drawn) [Example 8] it was 1 to 1000 nM.
Take `CCCC(NC(=O)C1Cc2cccc(c2)Oc2ccc(cc2)CC(NC(C)=O)C(=O)NC(C2CCCCC2)C(=O)N1)C(=O)C(=O)NCC(=O)OC(C)(C)C` (stereo not drawn) [Example 31]: the Ki is 1100 to 100000 nM.
In the case of `CCCC(NC(=O)[C@@H]1Cc2cccc(c2)OCCCCCCC(=O)N[C@@H](C2CCCCC2)C(=O)N1)C(=O)C(=O)NCC(=O)N[C@H](C(=O)O)c1ccccc1` (stereo partly drawn) [Example 12], the inhibitory constant (Ki) lay in the range of 1 to 1000 nM.
Then `CCCC(NC(=O)[C@@H]1Cc2cn(cn2)CCCCCCCC(=O)N[C@@H](C2CCCCC2)C(=O)N1)C(=O)C(=O)NCC(=O)N[C@H](C(=O)O)c1ccccc1` (stereo partly drawn) [Example 24], with 1100 to 100000 nM; and `CCCC(NC(=O)C1Cc2cccc(c2)Oc2ccc(cc2)CCC(=O)NC(C2CCCCC2)C(=O)O1)C(=O)C(=O)NCC(=O)NC(C(=O)OC(C)(C)C)c1ccccc1` (stereo not drawn) [Example 33], with 1100 to 100000 nM; and `CCCC(NC(=O)C1Cc2cccc(c2)OCCCCCCOC(=O)NC(C2CCCCC2)C(=O)N1)C(=O)C(=O)NCC(=O)N[C@H](C(=O)N(C)C)c1ccccc1` (stereo partly drawn) [Example 39], with 1 to 1000 nM.
With `CCCC(NC(=O)C1Cc2cccc(c2)Oc2ccc(cc2)CC(NC(=O)OC(C)(C)C)C(=O)NC(C2CCCCC2)C(=O)N1)C(=O)C(=O)NCC(=O)O` (stereo not drawn) [Example 28], the Ki lay in the range of 1100 to 100000 nM.
For `CCCC(NC(=O)[C@@H]1Cc2cccc(c2)CCCCCCCC(=O)N[C@@H](C2CCCCC2)C(=O)N1)C(=O)C(=O)NCC(=O)N[C@H](C(=O)OC(C)(C)C)c1ccccc1` (stereo partly drawn) [Example 17] ([Chg][Phe(3-(CH2)7CO)][X1]G[Phg]-OtBu; lactam N-2), the Ki is 1100 to 100000 nM.
Regarding `CCCC(NC(=O)[C@@H]1CCCCNC(=O)CCCC(=O)N[C@H](CCC(=O)O)C(=O)N[C@@H](C2CCCCC2)C(=O)N1)C(=O)C(=O)NCC(=O)N[C@H](C(N)=O)c1ccccc1` (stereo partly drawn) [Example 48] ([dE][Chg]K[X1]G[Phg]-NH2; linker N-3 via Glutaryl), the inhibition constant (Ki) was 1100 to 100000 nM.
Consider `CCCC(NC(=O)C1Cc2cccc(c2)Oc2ccc(cc2)CCC(=O)NC(C2CCCCC2)C(=O)N1)C(=O)C(=O)NCC(=O)OC(C)(C)C` (stereo not drawn) [Example 3], for which the Ki fell in the range of 1100 to 100000 nM.
`CCCC(NC(=O)[C@@H]1Cc2cccc(c2)OCCCCCCOC(=O)N[C@@H](C2CCCCC2)C(=O)N1)C(=O)C(=O)NCC(=O)N[C@H](C(=O)O)c1ccccc1` (stereo partly drawn) [Example 22]: the Ki was 1 to 1000 nM.
In the case of `CCCC(NC(=O)[C@@H]1CCCCNC(=O)CCCCCCC(=O)N[C@@H](C2CCCCC2)C(=O)N1)C(=O)C(=O)NCC(=O)N[C@H](C(N)=O)c1ccccc1` (stereo partly drawn) [Example 41] ([Chg]K[X1]G[Phg]-NH2; linker N-2 via Suberoyl) it was 1 to 1000 nM.

What is called Ki is the dissociation constant of the complex between target and ligand, obtained from inhibition or displacement.
